Data reported in patent publication US20080241101A1, “Skin vitalizing composition for external use anti-aging preparation” (Shiseido Company, Ltd., priority 2002, published 2008).

Key:
[1] = test system: artificial skin (human dermal fibroblast collagen gel with human foreskin-derived epidermal keratinocytes); experiment: Artificial skin culture with additives in the medium, H&E and type IV / type VII collagen immunostaining (Example 1); type: cell-based; settings: for staining of type IV and type VII collagen: cytokine (1 ng/ml interleukin-1β, 1 ng/ml TGF-α or 100 ng/ml PDGF) combined with 10 μg/ml aprotinin and 10 μM compound A
Description: (§1) Collagen gel was obtained by preparing 10 ml of a human dermal fibroblasts (0.3-1×10^5 cell/ml)-suspended collagen solution (using I-AC collagen manufactured by Koken Co., Ltd.) on ice, followed by gelling the collagen in a 60 mm Petri dish at 37° C. The gel was then peeled from the bottom of the dish, the collagen gel was placed on metal, and a glass ring (12 mm inner diameter) was placed over the gel. A 0.4 ml portion of a human foreskin-derived epidermal keratinocyte (1×10^6/ml) suspension (KGM-DMEM (1:1) mixed medium containing 5% fetal bovine serum) was poured into the glass ring while avoiding leakage. The keratinocytes were allowed to adhere in a CO2 incubator overnight, and the ring was removed on the following day. The medium was filled in up to the border of the epidermal layer, and culturing was continued while exposing the epidermal layer to the air, to prepare a multilayered skin model with epidermis having a horny layer.
From the 4th day after seeding the epidermal cells, the medium was replaced with medium containing (1) no compound (−compound A), (2) 10 uM of compound A (+compound A), (3) 10 μM of compound A and 10 μg/ml of aprotinin (+compound A+aprotinin), (4) 10 μM of compound A and 1 ng/ml of interleukin-1β (+compound A+IL-1), (5) 10 μM of compound A, 1 ng/ml of interleukin-1β and 10 μg/ml of aprotinin (+compound A+IL-1+aprotinin), (6) 10 μM of compound A and 1 ng/ml of TFG-α (+compound A+TGFα), (7) 10 μM of compound A, 1 ng/ml of TGF-α and 10 μg/ml aprotinin (+compound A, +TGFα+aprotinin), (8) 10 μM of compound A and 100 ng/ml PDGF (+compound A+PDGF) and (9) 10 μm of compound A, 100 ng/ml PDGF and 10 μg/ml of aprotinin (+compound A+PDGF +aprotinin), and every 2-3 days thereafter, the medium was exchanged with a medium containing the same types and same concentrations of […], extracellular matrix production accelerator (cytokines) and serine protease inhibitor, after which culturing was performed for 2 weeks.
The formed artificial skin was stained with hematoxylin and eosin (H&E) and immunostaining (using anti-type IV collagen antibody and anti-type VII collagen antibody).

[2] = test system: artificial skin basement membrane; experiment: Transmission electron microscopy of basement membrane structure directly under the epidermis of artificial skin (Example 1); type: cell-based, human
Description: as §1, with “layer. […]” for “layer.”

[3] = cytokine (1 ng/ml interleukin-1β, 1 ng/ml TGF-α or 100 ng/ml PDGF) together with 10 μM compound A

**Q.** Which results are given for aprotinin?
**A.** staining of type VII collagen ([1]; 10 μg/ml aprotinin added in addition to 10 μM compound A, 2 weeks culture): further increased; basement membrane structure directly under the epidermis (transmission electron microscope) ([2]; 10 μg/ml aprotinin added with 10 μM compound A): increased the electron density and accentuated the continuity of the basement membrane

**Q.** “transforming growth factor-α (TGF-α): matrix protein production-increasing cytokine” was tested. Which “staining of type IV and type VII collagen” value [1] did it give?
**A.** Its value is “clearly concentrated directly under the basal keratinocytes, giving a sharp stained image”.

**Q.** And the “staining of type VII collagen” value [1, 3]?
**A.** The value was “particularly accentuated”.

**Q.** `COc1ccc(S(=O)(=O)N(Cc2cccnc2)C(C(=O)NO)C(C)C)cc1.Cl` (centres unmarked) [compound A, reference compound] was tested. Which “staining of type VII collagen directly under the basal keratinocytes” value ([1]; 10 μM compound A alone in medium, 2 weeks culture, versus no-addition control) did it give?
**A.** Its value is “weak but definite staining of type VII collagen”.

**Q.** And the “basement membrane structure directly under the epidermis (transmission electron microscope)” value ([2]; 10 μM compound A alone)?
**A.** The value was “induced formation of the basement membrane”.

**Q.** “interleukin 1 (IL-1): matrix protein production-increasing cytokine, interleukin-1β” was tested. Which “staining of type IV and type VII collagen” value [1] did it give?
**A.** The value was “clearly concentrated directly under the basal keratinocytes, giving a sharp stained image”.

**Q.** And the “staining of type VII collagen” value [1, 3]?
**A.** Its value is “particularly accentuated”.
